This note sets out measurements from US20090312288A1 (TAKEDA PHARMACEUTICAL COMPANY LIMITED, priority 2008, published 2009).

pIC50: −log10 of the molar value.

The target in this assay is Aurora B/INCENP (Homo sapiens, UniProt Q96GD4). Nature of the assay: Determination of inhibition of AIK: Aurora B/INCENP direct fluorescence polarization (IMAP) assay. The format is biochemical. Particulars: 10 uM ATP, 0.8 nM Aurora B/INCENP; values given as bins; read-out: IC50 of Exemplified Compounds Against AIK B. On the technique in general: In fluorescence polarisation assays a small probe gives low polarisation when free and higher when bound to something large.
Aurora B/INCENP, sequence (Q96GD4 whole entry): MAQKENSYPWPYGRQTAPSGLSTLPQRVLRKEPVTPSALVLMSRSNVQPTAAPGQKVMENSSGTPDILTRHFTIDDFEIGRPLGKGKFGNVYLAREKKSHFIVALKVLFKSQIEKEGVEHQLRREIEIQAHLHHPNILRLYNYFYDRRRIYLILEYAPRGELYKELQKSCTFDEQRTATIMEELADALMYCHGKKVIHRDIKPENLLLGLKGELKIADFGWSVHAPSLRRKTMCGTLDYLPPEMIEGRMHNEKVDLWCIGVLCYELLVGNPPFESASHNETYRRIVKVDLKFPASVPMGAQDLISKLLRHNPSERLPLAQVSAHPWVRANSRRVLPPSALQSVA
Aurora B/INCENP, sequence (Q9NQS7 whole entry partner): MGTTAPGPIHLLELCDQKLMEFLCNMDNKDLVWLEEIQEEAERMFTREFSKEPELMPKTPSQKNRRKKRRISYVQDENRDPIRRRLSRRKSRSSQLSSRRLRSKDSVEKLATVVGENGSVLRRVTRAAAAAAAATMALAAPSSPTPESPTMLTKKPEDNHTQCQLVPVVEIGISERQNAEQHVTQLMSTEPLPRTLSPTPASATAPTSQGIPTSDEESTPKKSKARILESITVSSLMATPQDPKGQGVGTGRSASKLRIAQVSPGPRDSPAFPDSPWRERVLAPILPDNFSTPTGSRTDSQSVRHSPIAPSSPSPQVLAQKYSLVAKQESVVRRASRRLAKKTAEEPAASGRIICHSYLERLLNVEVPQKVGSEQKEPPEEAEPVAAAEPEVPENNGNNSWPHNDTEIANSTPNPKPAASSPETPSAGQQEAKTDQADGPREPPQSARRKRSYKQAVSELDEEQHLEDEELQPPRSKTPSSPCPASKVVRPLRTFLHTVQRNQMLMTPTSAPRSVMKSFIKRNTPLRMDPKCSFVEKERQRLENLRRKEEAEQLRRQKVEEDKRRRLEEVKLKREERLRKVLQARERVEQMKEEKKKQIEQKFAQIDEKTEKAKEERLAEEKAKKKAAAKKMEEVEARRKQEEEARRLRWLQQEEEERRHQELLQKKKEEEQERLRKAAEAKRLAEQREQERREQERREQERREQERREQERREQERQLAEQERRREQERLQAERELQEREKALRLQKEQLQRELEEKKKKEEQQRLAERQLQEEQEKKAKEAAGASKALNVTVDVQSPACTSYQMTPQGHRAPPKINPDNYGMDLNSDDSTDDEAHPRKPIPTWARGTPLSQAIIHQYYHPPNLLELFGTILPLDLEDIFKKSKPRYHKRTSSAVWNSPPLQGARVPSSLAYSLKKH
Regarding `CCS(=O)(=O)c1cccc(-c2c[nH]c(=O)c3[nH]c4ncc(C)cc4c23)c1` [Compound 32, 5-(3-Ethanesulfonyl-phenyl)-3-methyl-7,9-dihydro-dipyrido[2,3-b;4′,3′-d]pyrrol-8-one], the negative-log IC50 (pIC50) (in general, the negative decadic logarithm of the IC50, by convention in mol/L) is 8.07 to 8.25.

On to `CCS(=O)(=O)c1cccc(-c2cc(C(=O)N3CCSC3)c(C)c3[nH]c4ncc(C)cc4c23)c1` [Compound 98, (5-(3-(ethylsulfonyl)phenyl)-3,8-dimethyl-9H-pyrido[2,3-b]indol-7-yl)(thaiazolidin-3-yl)methanone], for which the pIC50 was 8.07 to 8.25.

As for `CCSc1ncc(-c2cccc(NC(=O)C3CC3)c2)c2c1[nH]c1ncc(C)cc12` [Compound 79], the negative-log IC50 (pIC50) is less than 7.89.

For `CCS(=O)(=O)c1cccc(-c2ccc(OC[C@H]3CCN(C)C3)c3[nH]c4ncc(C)cc4c23)c1` [Compound 186, (S)-5-(3-(ethylsulfonyl)phenyl)-3-methyl-8-((1-methylpyrrolidin-3-yl)methoxy)-9H-pyrido[2,3-b]indole], the pIC50 is less than 7.89.

Turning to `CCS(=O)(=O)c1cccc(-c2cc(C(=O)NCCN3CCNCC3)c(C)c3[nH]c4ncc(C)cc4c23)c1` [Compound 94], the negative logarithm of the IC50 (pIC50) was less than 7.89.

Turning to `CCN(CCO)CCCOc1ccc(-c2cccc(S(=O)(=O)CC)c2)c2c1[nH]c1ncc(Cl)cc12` [Compound 293, 2-((3-(3-chloro-5-(3-(ethylsulfonyl)phenyl)-9H-pyrido[2,3-b]indol-8-yloxy)propyl)(ethyl)amino)ethanol], the pIC50 was more than 8.40.

For the compound `CCS(=O)(=O)c1cccc(-c2ccc(OCCOC)c3[nH]c4ncc(C)cc4c23)c1` [Compound 208, 5-(3-(ethylsulfonyl)phenyl)-8-(2-methoxyethoxy)-3-methyl-9H-pyrido[2,3-b]indole], the pIC50 was 7.89 to 8.07.

For the compound `COc1ccc(-c2cccc(C(=O)NC3CC3)c2)c2c1[nH]c1ncc(C)cc12` [Compound 164, N-cyclopropyl-3-(8-methoxy-3-methyl-9H-pyrido[2,3-b]indol-5-yl)benzamide], the pIC50 was 8.07 to 8.25.

With `Cc1cnc2[nH]c3c(OCC4CCN(C)CC4)ccc(-c4cccc(NC(=O)C5CC5)c4)c3c2c1` [Compound 182, N-(3-(3-methyl-8-((1-methylpiperidin-4-yl)methoxy)-9H-pyrido[2,3-b]indol-5-yl)phenyl)cyclopropanecarboxamide], the pIC50 was 8.07 to 8.25.

`CCS(=O)(=O)c1cccc(-c2cc(NC(=O)CCN(C)C)c(OC)c3[nH]c4ncc(C)cc4c23)c1` [Compound 240, 3-(dimethylamino)-N-(5-(3-(ethylsulfonyl)phenyl)-8-methoxy-3-methyl-9H-pyrido[2,3-b]indol-7-yl)propanamide]: the negative-log IC50 (pIC50) is 8.07 to 8.25.

In the case of `CCS(=O)(=O)c1cccc(-c2cnc(OCC3CCN(C)CC3)c3[nH]c4ncc(C)cc4c23)c1` [Compound 54, 5-(3-Ethanesulfonyl-phenyl)-3-methyl-8-(1-methyl-piperidin-4-ylmethoxy)-9H-dipyrido[2,3-b;4′,3′-d]pyrrole], the negative-log IC50 (pIC50) is 7.89 to 8.07.

For `CCS(=O)(=O)c1cccc(-c2cc(C(=O)NCCN3CCCC3)c(C)c3[nH]c4ncc(C)cc4c23)c1` [Compound 116, 5-(3-(ethylsulfonyl)phenyl)-3,8-dimethyl-N-(2-(pyrrolidin-1-yl)ethyl)-9H-pyrido[2,3-b]indole-7-carboxamide], the pIC50 is 7.89 to 8.07.

Consider `CCS(=O)(=O)c1cccc(-c2ccc(OCC3CCNCC3)c3[nH]c4ncc(Cl)cc4c23)c1` [Compound 201, 3-chloro-5-(3-(ethylsulfonyl)phenyl)-8-(piperidin-4-ylmethoxy)-9H-pyrido[2,3-b]indole], for which the pIC50 was more than 8.40.

Take `CCS(=O)(=O)c1cccc(-c2cnc(OCC3CCN(C)CC3)c3[nH]c4ncc(Cl)cc4c23)c1` [Compound 72, 3-Chloro-5-(3-ethanesulfonyl-phenyl)-8-(1-methyl-piperidin-4-ylmethoxy)-9H-dipyrido[2,3-b;4′,3′-d]pyrrole]: the pIC50 is more than 8.40.

For `CCS(=O)(=O)c1cccc(-c2ccc(OCCN(C)C)c3[nH]c4ncc(C)cc4c23)c1` [Compound 207, 2-(5-(3-(ethylsulfonyl)phenyl)-3-methyl-9H-pyrido[2,3-b]indol-8-yloxy)-N,N-dimethylethanamine], the negative-log IC50 (pIC50) is less than 7.89.

Turning to `CCS(=O)(=O)c1cccc(-c2cc(C(=O)NCCOCC(F)(F)F)c(C)c3[nH]c4ncc(C)cc4c23)c1` [Compound 107], the pIC50 is 7.89 to 8.07.

For the compound `CCS(=O)(=O)c1cccc(-c2ccc(O[C@@H](C)CO)c3[nH]c4ncc(C)cc4c23)c1` [Compound 213, (S)-2-(5-(3-(ethylsulfonyl)phenyl)-3-methyl-9H-pyrido[2,3-b]indol-8-yloxy)propan-1-ol], the negative logarithm of the IC50 (pIC50) is 8.26 to 8.40.

Regarding `CCN(CCCOc1ccc(-c2cccc(C(=O)NC3CC3)c2)c2c1[nH]c1ncc(C)cc12)CCOP(=O)(O)O` [Compound 275, 2-((3-(5-(3-(cyclopropylcarbamoyl)phenyl)-3-methyl-9H-pyrido[2,3-b]indol-8-yloxy)propyl)(ethyl)amino)ethyl dihydrogen phosphate], the negative logarithm of the IC50 (pIC50) is 8.07 to 8.25.

For the compound `Cc1cnc2[nH]c3c(OCCCN4CCC(COP(=O)(O)O)CC4)ccc(-c4cccc(S(=O)(=O)C5CC5)c4)c3c2c1` [Compound 347, (1-(3-(5-(3-(cyclopropylsulfonyl)phenyl)-3-methyl-9H-pyrido[2,3-b]indol-8-yloxy)propyl)piperidin-4-yl)methyl dihydrogen phosphate], the pIC50 was more than 8.40.

In the case of `CCS(=O)(=O)c1cccc(-c2cc(CN3CCCC3)cc3[nH]c4ncc(C)cc4c23)c1` [Compound 138, 5-(3-Ethanesulfonyl-phenyl)-3-methyl-7-pyrrolidin-1-ylmethyl-9H-pyrido[2,3-b]indole], the negative logarithm of the IC50 (pIC50) is less than 7.89.

Consider `CCS(=O)(=O)c1cccc(-c2ccc(OCC3CCCCO3)c3[nH]c4ncc(C)cc4c23)c1` (stereo not shown) [Compound 423, 5-(3-(ethylsulfonyl)phenyl)-3-methyl-8-((tetrahydro-2H-pyran-2-yl)methoxy)-9H-pyrido[2,3-b]indole], for which the negative-log IC50 (pIC50) was 7.89 to 8.07.

Regarding `Cc1cc(Nc2ccc(OCC3CCN(C)CC3)c3[nH]c4ncc(Cl)cc4c23)ccc1N1CCN(C)CC1` [Compound 316, 3-chloro-N-(3-methyl-4-(4-methylpiperazin-1-yl)phenyl)-8-((1-methylpiperidin-4-yl)methoxy)-9H-pyrido[2,3-b]indol-5-amine], the pIC50 was less than 7.89.

In the case of `CCS(=O)(=O)c1cccc(-c2cc(NC(=O)C3CCN(C(C)=O)CC3)c(OC)c3[nH]c4ncc(C)cc4c23)c1` [Compound 243, 1-acetyl-N-(5-(3-(ethylsulfonyl)phenyl)-8-methoxy-3-methyl-9H-pyrido[2,3-b]indol-7-yl)piperidine-4-carboxamide], the pIC50 is 7.89 to 8.07.

Take `CCS(=O)(=O)c1cccc(-c2ccc(O[C@H](C)CO)c3[nH]c4ncc(C)cc4c23)c1` [Compound 212, (R)-2-(5-(3-(ethylsulfonyl)phenyl)-3-methyl-9H-pyrido[2,3-b]indol-8-yloxy)propan-1-ol]: the negative logarithm of the IC50 (pIC50) is 8.07 to 8.25.

In the case of `CCS(=O)(=O)c1cccc(-c2ccc(OCCn3ccnc3)c3[nH]c4ncc(C)cc4c23)c1` [Compound 333, 8-(2-(1H-imidazol-1-yl)ethoxy)-5-(3-(ethylsulfonyl)phenyl)-3-methyl-9H-pyrido[2,3-b]indole], the negative logarithm of the IC50 (pIC50) is less than 7.89.

Consider `Cc1cnc2[nH]c3c(C)c(C(=O)NCCN(C)C)cc(-c4cccc(C(=O)NC5CC5)c4)c3c2c1` [Compound 122, 5-(3-(cyclopropylcarbamoyl)phenyl)-N-(2-(dimethylamino)ethyl)-3,8-dimethyl-9H-pyrido[2,3-b]indole-7-carboxamide], for which the pIC50 is less than 7.89.

Regarding `Cc1cnc2[nH]c3c(OC[C@H]4CNCCO4)ccc(-c4cccc(S(=O)(=O)C5CC5)c4)c3c2c1` [Compound 359, (R)-2-((5-(3-(cyclopropylsulfonyl)phenyl)-3-methyl-9H-pyrido[2,3-b]indol-8-yloxy)methyl)morpholine], the pIC50 was more than 8.40.

For the compound `Cc1cnc2[nH]c3c(OC[C@H](CO)CN(C)C)ccc(-c4cccc(S(=O)(=O)C5CC5)c4)c3c2c1` [Compound 401, (S)-3-(5-(3-(cyclopropylsulfonyl)phenyl)-3-methyl-9H-pyrido[2,3-b]indol-8-yloxy)-2-((dimethylamino)methyl)propan-1-ol], the pIC50 was more than 8.40.

In the case of `Cc1cnc2[nH]c3c(OCC4CCN(C)CC4)ccc(-c4cccc(C(=O)NC5CC5)c4)c3c2c1` [Compound 178, N-cyclopropyl-3-(3-methyl-8-((1-methylpiperidin-4-yl)methoxy)-9H-pyrido[2,3-b]indol-5-yl)benzamide], the pIC50 is less than 7.89.

`CCS(=O)(=O)c1cccc(-c2ccc(OC[C@H](O)CO)c3[nH]c4ncc(C)cc4c23)c1` [Compound 231, (R)-3-(5-(3-(ethylsulfonyl)phenyl)-3-methyl-9H-pyrido[2,3-b]indol-8-yloxy)propane-1,2-diol]: the pIC50 was more than 8.40.

Regarding `Cc1cnc2[nH]c3c(OC[C@@H](CN(C)C)OP(=O)(O)O)ccc(-c4cccc(S(=O)(=O)C5CC5)c4)c3c2c1` [Compound 315, (R)-1-(5-(3-(cyclopropylsulfonyl)phenyl)-3-methyl-9H-pyrido[2,3-b]indol-8-yloxy)-3-(dimethylamino)propan-2-yl dihydrogen phosphate], the pIC50 was more than 8.40.

As to `CN(CCO)CCOc1ccc(-c2cccc(S(=O)(=O)C3CC3)c2)c2c1[nH]c1ncc(Cl)cc12` [Compound 319, 2-((2-(3-chloro-5-(3-(cyclopropylsulfonyl)phenyl)-9H-pyrido[2,3-b]indol-8-yloxy)ethyl)(methyl)amino)ethanol], the pIC50 is more than 8.40.

With `CCN1CCC(NC(=O)c2cc(-c3cccc(S(=O)(=O)CC)c3)c3c([nH]c4ncc(C)cc43)c2C)CC1` [Compound 105, N-(1-ethylpiperidin-4-yl)-5-(3-(ethylsulfonyl)phenyl)-3,8-dimethyl-9H-pyrido[2,3-b]indole-7-carboxamide], the pIC50 is less than 7.89.

As for `CNS(=O)(=O)c1cccc(-c2ccc(C)c3[nH]c4ncc(C)cc4c23)c1` [Compound 15, 3-(3,8-dimethyl-9H-pyrido[2,3-b]indol-5-yl)-N-methylbenzenesulfonamide], the pIC50 was more than 8.40.
